From patent US11447466B2, “Substituted indole compounds useful as inhibitors of TLR7/8/9” (BRISTOL-MYERS SQUIBB COMPANY, priority 2017, dated 2022)

How the values were obtained:
Type in all cases: cell-based
human TLR8 = molecular target: T1, human TLR8 (Homo sapiens, UniProt Q9NR97); assay: TLR8 inhibition reporter assay (HEK-Blue SEAP reporter, R848 stimulation); conditions: HEK-Blue cells overexpressing human TLR8, SEAP reporter, R848 15.9 μM, 22 hour incubation
T1 construct: host or cells: HEK-Blue cells
T1 sequence (Q9NR97 27-1041): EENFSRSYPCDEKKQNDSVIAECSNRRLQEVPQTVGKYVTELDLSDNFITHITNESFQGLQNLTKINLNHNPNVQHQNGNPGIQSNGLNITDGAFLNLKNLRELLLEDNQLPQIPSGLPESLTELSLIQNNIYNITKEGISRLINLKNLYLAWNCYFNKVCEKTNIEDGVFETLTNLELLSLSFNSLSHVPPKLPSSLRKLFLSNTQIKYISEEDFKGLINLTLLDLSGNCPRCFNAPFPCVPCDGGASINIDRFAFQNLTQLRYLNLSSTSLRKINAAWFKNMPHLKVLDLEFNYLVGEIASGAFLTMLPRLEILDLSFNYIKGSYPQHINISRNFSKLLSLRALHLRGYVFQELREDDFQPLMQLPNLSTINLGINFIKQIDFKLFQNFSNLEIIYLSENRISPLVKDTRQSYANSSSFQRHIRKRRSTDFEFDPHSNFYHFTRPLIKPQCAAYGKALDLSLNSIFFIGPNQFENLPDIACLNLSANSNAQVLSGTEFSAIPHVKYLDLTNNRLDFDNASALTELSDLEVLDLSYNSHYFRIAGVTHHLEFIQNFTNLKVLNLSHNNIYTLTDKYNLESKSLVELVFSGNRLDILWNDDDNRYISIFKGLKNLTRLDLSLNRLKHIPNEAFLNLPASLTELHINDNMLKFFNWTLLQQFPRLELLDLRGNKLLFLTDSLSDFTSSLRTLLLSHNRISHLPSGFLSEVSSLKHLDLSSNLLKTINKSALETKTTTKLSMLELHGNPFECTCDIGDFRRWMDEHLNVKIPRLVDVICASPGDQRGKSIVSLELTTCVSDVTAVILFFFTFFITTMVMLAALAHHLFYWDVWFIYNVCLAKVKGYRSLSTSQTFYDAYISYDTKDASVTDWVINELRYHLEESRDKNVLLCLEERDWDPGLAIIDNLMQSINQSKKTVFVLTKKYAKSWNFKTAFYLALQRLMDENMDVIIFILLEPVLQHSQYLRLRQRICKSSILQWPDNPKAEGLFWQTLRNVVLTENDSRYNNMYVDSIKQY
Method in brief: (§1)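 Agonists used: gardiquimod 7.5 μM (TLR7), R848 15.9 μM (TLR8), ODN2006 5 nM (TLR9), added after 30 min room-temperature compound pre-treatment (0.05 nM–50 μM) of receptor-overexpressing HEK-Blue cells. SEAP reporter (NF-κB/AP-1 driven) read after 22 h at 37 °C; inhibition scaled between agonist+DMSO and reference-inhibitor wells.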

human TLR7 = molecular target: T2, human TLR7 (Homo sapiens, UniProt Q9NYK1); assay: TLR7 inhibition reporter assay (HEK-Blue SEAP reporter, gardiquimod stimulation); conditions: HEK-Blue cells overexpressing human TLR7, SEAP reporter, gardiquimod 7.5 μM, 22 hour incubation
T2 construct: host or cells: HEK-Blue cells
T2 sequence (Q9NYK1 27-1049): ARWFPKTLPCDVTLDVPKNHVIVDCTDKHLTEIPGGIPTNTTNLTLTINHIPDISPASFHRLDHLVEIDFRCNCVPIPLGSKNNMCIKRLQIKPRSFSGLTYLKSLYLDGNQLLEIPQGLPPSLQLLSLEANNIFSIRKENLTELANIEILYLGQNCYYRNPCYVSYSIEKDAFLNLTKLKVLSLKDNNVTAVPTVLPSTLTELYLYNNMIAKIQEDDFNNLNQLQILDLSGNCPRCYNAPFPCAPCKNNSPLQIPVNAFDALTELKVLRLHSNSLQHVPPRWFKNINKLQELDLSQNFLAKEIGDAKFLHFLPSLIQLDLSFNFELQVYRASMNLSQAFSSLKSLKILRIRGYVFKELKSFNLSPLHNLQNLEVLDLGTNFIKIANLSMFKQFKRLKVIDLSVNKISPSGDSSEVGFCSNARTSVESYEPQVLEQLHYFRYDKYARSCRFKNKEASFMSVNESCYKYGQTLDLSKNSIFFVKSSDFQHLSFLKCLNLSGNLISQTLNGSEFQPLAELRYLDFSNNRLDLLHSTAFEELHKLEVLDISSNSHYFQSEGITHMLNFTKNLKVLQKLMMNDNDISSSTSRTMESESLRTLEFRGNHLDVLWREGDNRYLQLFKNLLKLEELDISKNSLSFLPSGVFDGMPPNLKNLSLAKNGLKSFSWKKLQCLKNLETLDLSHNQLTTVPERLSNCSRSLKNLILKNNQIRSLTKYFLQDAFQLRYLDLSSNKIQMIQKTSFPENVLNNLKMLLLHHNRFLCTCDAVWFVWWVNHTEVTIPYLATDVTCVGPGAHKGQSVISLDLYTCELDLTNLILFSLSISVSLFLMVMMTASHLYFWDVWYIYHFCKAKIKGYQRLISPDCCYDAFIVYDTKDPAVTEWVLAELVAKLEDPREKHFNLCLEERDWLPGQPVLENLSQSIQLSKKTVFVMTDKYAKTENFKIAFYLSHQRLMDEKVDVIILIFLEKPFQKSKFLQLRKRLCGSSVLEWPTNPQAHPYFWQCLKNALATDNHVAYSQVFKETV
Method in brief: as §1

human TLR9 = molecular target: T3, human TLR9 (Homo sapiens, UniProt Q9NR96); assay: TLR9 inhibition reporter assay (HEK-Blue SEAP reporter, ODN2006 stimulation); conditions: HEK-Blue cells overexpressing human TLR9, SEAP reporter, ODN2006 5 nM, 22 hour incubation
T3 construct: host or cells: HEK-Blue cells
T3 sequence (Q9NR96 26-1032): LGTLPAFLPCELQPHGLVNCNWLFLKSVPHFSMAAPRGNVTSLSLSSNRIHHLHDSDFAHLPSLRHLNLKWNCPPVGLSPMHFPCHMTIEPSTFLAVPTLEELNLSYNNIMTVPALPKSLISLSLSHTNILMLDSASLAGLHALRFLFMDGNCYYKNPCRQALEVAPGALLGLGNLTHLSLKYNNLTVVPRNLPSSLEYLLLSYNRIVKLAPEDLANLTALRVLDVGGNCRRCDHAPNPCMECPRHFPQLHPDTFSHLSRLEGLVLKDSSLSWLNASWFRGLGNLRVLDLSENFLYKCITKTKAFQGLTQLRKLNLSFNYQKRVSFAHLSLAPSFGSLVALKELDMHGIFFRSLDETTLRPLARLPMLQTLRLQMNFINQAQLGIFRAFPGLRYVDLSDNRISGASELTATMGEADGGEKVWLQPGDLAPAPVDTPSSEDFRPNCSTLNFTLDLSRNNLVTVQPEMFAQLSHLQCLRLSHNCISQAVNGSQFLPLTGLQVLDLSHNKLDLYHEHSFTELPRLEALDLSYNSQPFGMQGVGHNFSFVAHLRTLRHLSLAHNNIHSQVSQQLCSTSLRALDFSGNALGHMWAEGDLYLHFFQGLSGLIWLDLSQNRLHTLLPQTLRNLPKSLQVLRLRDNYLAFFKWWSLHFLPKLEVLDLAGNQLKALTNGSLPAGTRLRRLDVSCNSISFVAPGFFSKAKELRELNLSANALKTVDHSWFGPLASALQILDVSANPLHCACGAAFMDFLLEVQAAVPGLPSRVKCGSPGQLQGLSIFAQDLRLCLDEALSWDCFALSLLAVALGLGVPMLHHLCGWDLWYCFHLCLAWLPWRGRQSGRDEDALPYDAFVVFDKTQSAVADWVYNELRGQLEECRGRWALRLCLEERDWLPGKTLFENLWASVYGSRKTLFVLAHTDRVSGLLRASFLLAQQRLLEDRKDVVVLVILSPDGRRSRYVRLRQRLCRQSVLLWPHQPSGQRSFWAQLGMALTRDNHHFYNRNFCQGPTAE
Method in brief: as §1

| IC50 (human TLR8) | IC50 (human TLR7) | IC50 (human TLR9) | SMILES |
| --- | --- | --- | --- |
| 42.1 nM | 48 nM | 6590 nM | Cc1nc(-c2[nH]c3ccc(C4CCN(CC(=O)N(C)C)CC4)cc3c2C(C)C)cn(C)c1=O [Example 115, 2-(4-(2-(4,6-dimethyl-5-oxo-4,5-dihydropyrazin-2-yl)-3-isopropyl-1H-indol-5-yl)piperidin-1-yl)-N,N-dimethylacetamide] |
| 23.8 nM | 29.6 nM | 6100 nM | Cc1cc(-c2[nH]c3ccc(C4CCN(CC(=O)N(C)C)CC4)cc3c2C(C)C)nn(C)c1=O [Example 116, 2-(4-(2-(1,5-dimethyl-6-oxo-1,6-dihydropyridazin-3-yl)-3-isopropyl-1H-indol-5-yl)piperidin-1-yl)-N,N-dimethylacetamide] |
| 5.3 nM | 2 nM | 14000 nM | CNC(=O)CN1CCC(c2ccc3[nH]c(-c4cc(C)c(=O)n(C)c4)c(C(C)C)c3c2)CC1 [Example 117, 2-(4-(2-(1,5-dimethyl-6-oxo-1,6-dihydropyridin-3-yl)-3-isopropyl-1H-indol-5-yl)piperidin-1-yl)-N-methylacetamide] |
| 14.5 nM | 18.6 nM | 9640 nM | CNC(=O)CN1CCC(c2ccc3[nH]c(-c4cc(C)c(=O)n(C)n4)c(C(C)C)c3c2)CC1 [Example 118, 2-(4-(2-(1,5-dimethyl-6-oxo-1,6-dihydropyridazin-3-yl)-3-isopropyl-1H-indol-5-yl)piperidin-1-yl)-N-methylacetamide] |
| 14.9 nM | 11.4 nM | 1160 nM | Cc1cc(-c2[nH]c3ccc(C4CCN(CC(=O)N5CC[C@H](O)C5)CC4)cc3c2C(C)C)cn(C)c1=O [Example 119, (S)-5-(5-(1-(2-(3-hydroxypyrrolidin-1-yl)-2-oxoethyl)piperidin-4-yl)-3-isopropyl-1H-indol-2-yl)-1,3-dimethylpyridin-2(1H)-one] |
| 11.5 nM | 7.4 nM | 851 nM | Cc1cc(-c2[nH]c3ccc(C4CCN(CC(=O)N5CC[C@@H](O)C5)CC4)cc3c2C(C)C)cn(C)c1=O [Example 120, (R)-5-(5-(1-(2-(3-hydroxypyrrolidin-1-yl)-2-oxoethyl)piperidin-4-yl)-3-isopropyl-1H-indol-2-yl)-1,3-dimethylpyridin-2(1H)-one] |
| 102 nM | 40.7 nM | ≥ 50000 nM | Cc1cc(-c2[nH]c3ccc(C4CCN(CC(=O)N5CCC(=O)N5)CC4)cc3c2C(C)C)cn(C)c1=O [Example 121, 5-(3-isopropyl-5-(1-(2-oxo-2-(3-oxopyrazolidin-1-yl)ethyl)piperidin-4-yl)-1H-indol-2-yl)-1,3-dimethylpyridin-2(1H)-one] |
| 15.7 nM | 4.9 nM | 14700 nM | Cc1cc(-c2[nH]c3ccc(C4CCN(CC(=O)N5CCCC5)CC4)cc3c2C(C)C)cn(C)c1=O [Example 122, 5-(3-isopropyl-5-(1-(2-oxo-2-(pyrrolidin-1-yl)ethyl)piperidin-4-yl)-1H-indol-2-yl)-1,3-dimethylpyridin-2(1H)-one] |
| 8 nM | 7 nM | 23800 nM | Cc1cc(-c2[nH]c3ccc(C4CCN([C@@H]5CCNC5=O)CC4)cc3c2C(C)C)cn(C)c1=O [Example 123, (R)-5-(3-isopropyl-5-(1-(2-oxopyrrolidin-3-yl)piperidin-4-yl)-1H-indol-2-yl)-1,3-dimethylpyridin-2(1H)-one] |
| 11.3 nM | 9.7 nM | ≥ 50000 nM | Cc1cc(-c2[nH]c3ccc(C4CCN(CC(=O)NCC(C)(C)O)CC4)cc3c2C(C)C)cn(C)c1=O [Example 124, 2-(4-(2-(1,5-dimethyl-6-oxo-1,6-dihydropyridin-3-yl)-3-isopropyl-1H-indol-5-yl)piperidin-1-yl)-N-(2-hydroxy-2-methylpropyl)acetamide] |
| 5.2 nM | 3.7 nM | 33600 nM | Cc1cc(-c2[nH]c3ccc(C4CCN(C5CCN(C)C5=O)CC4)cc3c2C(C)C)cn(C)c1=O (stereo not drawn) [Example 127, 5-(3-isopropyl-5-(1-(1-methyl-2-oxopyrrolidin-3-yl)piperidin-4-yl)-1H-indol-2-yl)-1,3-dimethylpyridin-2(1H)-one] |
| 5.7 nM | 3 nM | 977 nM | COc1cc(-c2[nH]c3ccc(C4CCN(CC(=O)N(C)C)CC4)cc3c2C(C)C)cn(C)c1=O [Example 128, 2-(4-(3-isopropyl-2-(5-methoxy-1-methyl-6-oxo-1,6-dihydropyridin-3-yl)-1H-indol-5-yl)piperidin-1-yl)-N,N-dimethylacetamide] |
| 8 nM | 5 nM | 2930 nM | CNC(=O)CN1CCC(c2ccc3[nH]c(-c4cc(OC)c(=O)n(C)c4)c(C(C)C)c3c2)CC1 [Example 129, 2-(4-(3-isopropyl-2-(5-methoxy-1-methyl-6-oxo-1,6-dihydropyridin-3-yl)-1H-indol-5-yl)piperidin-1-yl)-N-methylacetamide] |
